This note sets out measurements from patent publication US6972319B1, “Pituitary adenylate cyclase activating peptide (PACAP)receptor 3 (R3) agonists and their pharmacological methods of use” (priority 1999, dated 2005).

No end group written: not given here.

The target in one experiment is T1, PACAP-R3 (Homo sapiens, UniProt P41587).
T1 sequence (P41587 24-438): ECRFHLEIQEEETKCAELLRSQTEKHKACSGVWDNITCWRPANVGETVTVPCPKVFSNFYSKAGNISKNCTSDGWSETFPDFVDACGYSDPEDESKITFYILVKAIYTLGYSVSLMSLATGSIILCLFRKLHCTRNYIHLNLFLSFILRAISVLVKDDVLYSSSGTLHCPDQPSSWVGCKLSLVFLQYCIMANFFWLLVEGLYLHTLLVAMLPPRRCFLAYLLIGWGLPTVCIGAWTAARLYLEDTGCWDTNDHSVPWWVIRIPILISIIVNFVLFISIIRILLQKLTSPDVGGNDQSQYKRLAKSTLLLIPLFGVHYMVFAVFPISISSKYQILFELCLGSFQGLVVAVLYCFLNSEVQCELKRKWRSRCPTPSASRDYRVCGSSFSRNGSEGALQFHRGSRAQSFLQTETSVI
Kind of experiment: Cyclic AMP SPA on CHO cells expressing PACAP R3. It counts as cell-based. On the set-up: expressed in transfected cells; host or cells: CHO cells (Geneticin selection). The conditions noted are these: for EC50: cAMP SPA, CHO cells transfected with PACAP-R3, concentration at which 50% of maximum PACAP27 activity is achieved, NA = no detectable activities, read-out: R3 EC50; for R3 Selectivity: ratio of EC50 at R2 versus EC50 at R3. As for the experimental part:
(§1) CHO cells expressing the PACAP R3 were plated in 96-well plates (Costar) at 8×10^4 cell/well and grown at 37 C. for 24 hours in α MEM+nucleosides+glutamine (Giobco BRL), 10% FBS, 100 μg/ml Pen/Strep, 0.3 mg/ml glutamine, 1 mM HEPES, 0.5 mg/ml Geneticin (Gibco BRL). The media was removed and the plates were washed with PBS. The cells were incubated with a peptide, in Hepes-PBS-BSA with 0.4 mg/mlSoybean Trypsin Inhibitor, 0.5 mg/ml Bacitracin, 100 uM IBMX, for 15 min at 37 C. Cyclic AMP in the cell extracts was quantitated using the cAMP SPA direct screening assay system (Amersham Pharmacia Biotech Inc, Piscataway, N.J.,). The peptides shown in Table 3 were assayed for cAMP activity.
(§2) EC50 is defined as the concentration of the polypeptide at which 50% of maximum PACAP27 activity is achieved. “NA” denotes no detectable activities. “R3 Selectivity” is derived from the ratio of EC50 at R2 versus EC50 at R3.

A further experiment concerns the target T2, PACAP-R2 (Homo sapiens, UniProt P32241).
T2 construct: expressed in transfected cells; host or cells: CHO cells
T2 sequence (P32241 31-457): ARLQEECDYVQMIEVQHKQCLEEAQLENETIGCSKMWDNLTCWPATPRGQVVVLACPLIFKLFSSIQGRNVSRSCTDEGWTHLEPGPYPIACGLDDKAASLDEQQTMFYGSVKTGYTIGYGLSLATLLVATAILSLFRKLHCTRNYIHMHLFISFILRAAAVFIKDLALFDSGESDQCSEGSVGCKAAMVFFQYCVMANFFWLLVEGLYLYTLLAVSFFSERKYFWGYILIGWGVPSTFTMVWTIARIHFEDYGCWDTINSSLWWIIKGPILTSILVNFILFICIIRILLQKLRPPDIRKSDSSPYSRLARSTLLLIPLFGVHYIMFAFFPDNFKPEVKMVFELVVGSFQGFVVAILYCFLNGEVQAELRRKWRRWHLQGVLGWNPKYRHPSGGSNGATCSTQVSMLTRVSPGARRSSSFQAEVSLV
Kind of experiment: Cyclic AMP SPA on CHO cells transfected with PACAP-R2. It counts as cell-based. As to conditions: cAMP SPA, concentration at which 50% of maximum PACAP27 activity is achieved, NA = no detectable activities, read-out: R2 EC50. As for the experimental part: as §1, §2

As usually defined, the EC50 is the concentration giving half of the maximal effect. Turning to “H-HSDAVFTDNYTRLRKQMAAKKYLNDIKKGGT [Peptide R3P20]”, the EC50 was determined as 1.4 nM at PACAP-R3 and 330 nM on PACAP-R2. Also, on PACAP-R3, the “R3 Selectivity” value was found to be 230.

With “HSDAVFTDNYTRLRKQVAAKKYLNSIKK [Peptide R3P62]”, on PACAP-R3, the EC50 was determined as 1.8 nM and the “R3 Selectivity” value came out at 100. Moreover, the EC50 on PACAP-R2 was 180 nM.

With “HSDAVFTDNYTRLRKQMAAKKYLNSIKNGR [Peptide R3P139]”, the 50% effective concentration (EC50) is 0.4 nM on PACAP-R3 and 20 nM at PACAP-R2. Also, on PACAP-R3, the “R3 Selectivity” value stood at 50.

Take “HSDAVFTDNYTRLRKQMARKKYLNSIRNRI [rR3P192]”: at PACAP-R3, the concentration giving a half-maximal response (EC50) is 0.6 nM and the “R3 Selectivity” value is listed as 60. Also, the EC50 at PACAP-R2 worked out at 40 nM.

Consider HSDGIFTDSYSRYREQMAVKKYLAAVL-NH2 [PAC15], for which the half-maximal effective concentration (EC50) on PACAP-R3 is 0.2 nM; at PACAP-R2, 2.4 nM. For the same compound, at PACAP-R3, the “R3 Selectivity” value was 12.

Consider “HSDAVFTDNYTRLRKQMAAKKYLNSIKKKR [Peptide R3P53]”, for which, at PACAP-R3, the EC50 is 0.2 nM and the “R3 Selectivity” value stood at 2500. The 50% effective concentration (EC50) at PACAP-R2 worked out at 500 nM.

Turning to “H-HSDAVFTDNYTRLRKQMAAKKYLNSISNKR [Peptide R3P129]”, at PACAP-R3, the EC50 is 1 nM and the “R3 Selectivity” value amounted to 50. Moreover, the EC50 at PACAP-R2 amounted to 50 nM.

As for “HSDAVFTDNYTRLRKQVAAKKYLQSILKKR [Peptide R3P84]”, on PACAP-R3, the EC50 came to 0.06 nM and the “R3 Selectivity” value stood at 40. Moreover, the half-maximal effective concentration (EC50) at PACAP-R2 was determined as 2.5 nM.

Consider “HSDAVFTDNYTRLRKQMAAKKYLNSIPNRI [rR3P179]”, for which, at PACAP-R3, the EC50 was 1.5 nM and the “R3 Selectivity” value is 150. Also, the EC50 on PACAP-R2 stood at 230 nM.

As to “HSDAVFTDNYTRLRKQMASKKYLNSIRNRI [rR3P193]”, the EC50 at PACAP-R3 turned out to be 1.9 nM; on PACAP-R2, 200 nM. The “R3 Selectivity” value at PACAP-R3 was determined as 110.

As to “HSDAVFTENYTKLRKQLAAKKYLNDLKK [Peptide R3P5]”, the values for the EC50 at PACAP-R3 and at PACAP-R2 were 7 nM and 200 nM, respectively. Also, the “R3 Selectivity” value at PACAP-R3 is reported as 30.

Consider “HSDAVFTDNYTRLRKQVAAKKYLNSIKNKRY [Peptide R3P79]”, for which the “R3 Selectivity” value at PACAP-R3 worked out at 200. Besides, the EC50 at PACAP-R2 stood at 100 nM.

For “HSDAVFTDNYTRLRKQVAAKKYLQSIKNK [Peptide R3P86]”, the EC50 was determined as 0.8 nM on PACAP-R3 and 90 nM at PACAP-R2. In addition, the “R3 Selectivity” value on PACAP-R3 is reported as 110.

“HSDAVFTDNYTRLRKQMAKKKYLNSIQNRI [rR3P186]”: at PACAP-R3, the EC50 was 1.6 nM and the “R3 Selectivity” value is recorded as 44. For the same compound, the EC50 at PACAP-R2 was found to be 70 nM.

In the case of “HSDAVFTDNYTRLRKQVAAKKYLNSIKNKRY [Peptide R3P68]”, the half-maximal effective concentration (EC50) on PACAP-R3 was found to be 0.5 nM; on PACAP-R2 it was 130 nM. The “R3 Selectivity” value on PACAP-R3 is 260.

Take “HSDAVFTDNYTRLRKQVAAKKYLNSIKKKR [Peptide R3P78]”: the concentration for a half-maximal effect (EC50) at PACAP-R3 worked out at 1.1 nM; at PACAP-R2, 250 nM. For the same compound, the “R3 Selectivity” value on PACAP-R3 is 230.

Regarding “HSDAVFTDNYTRLRKQMAYKKYLNSIKNKR [Peptide R3P115]”, at PACAP-R3, the EC50 came to 6 nM and the “R3 Selectivity” value stood at 50. The half-maximal effective concentration (EC50) at PACAP-R2 was 300 nM.

For the compound “HSDAVFTDNYTRLRKQLAVKKYLNDIKNGGT [Peptide R3P29]”, the EC50 at PACAP-R3 is 0.5 nM; at PACAP-R2, above 100 nM. For the same compound, on PACAP-R3, the “R3 Selectivity” value was above 200.

As to `CC[C@H](C)[C@H](NC(=O)[C@H](CO)NC(=O)[C@H](CC(N)=O)NC(=O)[C@H](CC(C)C)NC(=O)[C@H](Cc1ccc(O)cc1)NC(=O)[C@H](CCCCN)NC(=O)[C@H](CCCCN)NC(=O)[C@H](C)NC(=O)[C@H](C)NC(=O)[C@H](CCSC)NC(=O)[C@H](CCC(N)=O)NC(=O)[C@H](CCCCN)NC(=O)[C@H](CCCNC(=N)N)NC(=O)[C@H](CC(C)C)NC(=O)[C@H](CCCNC(=N)N)NC(=O)[C@@H](NC(=O)[C@H](Cc1ccc(O)cc1)NC(=O)[C@H](CC(N)=O)NC(=O)[C@H](CC(=O)O)NC(=O)[C@@H](NC(=O)[C@H](Cc1ccccc1)NC(=O)[C@@H](NC(=O)[C@H](C)NC(=O)[C@H](CC(=O)O)NC(=O)[C@H](CO)NC(=O)[C@@H](N)Cc1c[nH]cn1)C(C)C)[C@@H](C)O)[C@@H](C)O)C(=O)N[C@@H](CCCCN)C(=O)N[C@@H](CC(N)=O)C(=O)N[C@@H](CCCCN)C(=O)N[C@@H](CCC(N)=O)C(=O)O` [Peptide R3P166], the 50% effective concentration (EC50) on PACAP-R2 was determined as 50 nM.

Turning to `CC[C@H](C)[C@H](NC(=O)[C@H](CO)NC(=O)[C@H](CC(N)=O)NC(=O)[C@H](CC(C)C)NC(=O)[C@H](Cc1ccc(O)cc1)NC(=O)[C@H](CCCCN)NC(=O)[C@H](CCCCN)NC(=O)[C@@H](NC(=O)[C@H](C)NC(=O)[C@H](CCSC)NC(=O)[C@H](CCC(N)=O)NC(=O)[C@H](CCCCN)NC(=O)[C@H](CCCNC(=N)N)NC(=O)[C@H](CC(C)C)NC(=O)[C@H](CCCNC(=N)N)NC(=O)[C@@H](NC(=O)[C@H](Cc1ccc(O)cc1)NC(=O)[C@H](CC(N)=O)NC(=O)[C@H](CC(=O)O)NC(=O)[C@@H](NC(=O)[C@H](Cc1ccccc1)NC(=O)[C@@H](NC(=O)[C@H](C)NC(=O)[C@H](CC(=O)O)NC(=O)[C@H](CO)NC(=O)[C@@H](N)Cc1c[nH]cn1)C(C)C)[C@@H](C)O)[C@@H](C)O)C(C)C)C(=O)N[C@@H](CCCCN)C(=O)N[C@@H](CC(N)=O)C(=O)N[C@@H](CCCCN)C(=O)N[C@@H](CCCNC(=N)N)C(=O)O` [Peptide R3P113], at PACAP-R2, the EC50 was found to be 3 nM.

For the compound “HSDAVFTDNYTRLRKQLAAKKYLNDIKNGGT [Peptide R3P24]”, the half-maximal effective concentration (EC50) on PACAP-R2 was found to be 45 nM.

Take `CC[C@H](C)[C@H](NC(=O)[C@H](CO)NC(=O)[C@H](CC(N)=O)NC(=O)[C@H](CC(C)C)NC(=O)[C@H](Cc1ccc(O)cc1)NC(=O)[C@H](CCCCN)NC(=O)[C@H](CCCCN)NC(=O)[C@H](C)NC(=O)[C@H](C)NC(=O)[C@H](CCSC)NC(=O)[C@H](CCC(N)=O)NC(=O)[C@H](CCCCN)NC(=O)[C@H](CCCNC(=N)N)NC(=O)[C@H](CC(C)C)NC(=O)[C@H](CCCNC(=N)N)NC(=O)[C@@H](NC(=O)[C@H](Cc1ccc(O)cc1)NC(=O)[C@H](CC(N)=O)NC(=O)[C@H](CC(=O)O)NC(=O)[C@@H](NC(=O)[C@H](Cc1ccccc1)NC(=O)[C@@H](NC(=O)[C@H](C)NC(=O)[C@H](CC(=O)O)NC(=O)[C@H](CO)NC(=O)[C@@H](N)Cc1c[nH]cn1)C(C)C)[C@@H](C)O)[C@@H](C)O)C(=O)N[C@@H](CCSC)C(=O)N[C@@H](CC(N)=O)C(=O)N[C@@H](CCCCN)C(=O)N[C@@H](CCCNC(=N)N)C(=O)O` [Peptide R3P124]: the concentration giving a half-maximal response (EC50) on PACAP-R2 came to 3 nM.

Consider `CC[C@H](C)[C@H](NC(=O)[C@H](CO)NC(=O)[C@H](CC(N)=O)NC(=O)[C@H](CC(C)C)NC(=O)[C@H](Cc1ccc(O)cc1)NC(=O)[C@H](CCCCN)NC(=O)[C@H](CCCCN)NC(=O)[C@H](C)NC(=O)[C@H](C)NC(=O)[C@H](CCSC)NC(=O)[C@H](CCC(N)=O)NC(=O)[C@H](CCCCN)NC(=O)[C@H](CCCNC(=N)N)NC(=O)[C@H](CC(C)C)NC(=O)[C@H](CCCNC(=N)N)NC(=O)[C@@H](NC(=O)[C@H](Cc1ccc(O)cc1)NC(=O)[C@H](CC(N)=O)NC(=O)[C@H](CC(=O)O)NC(=O)[C@@H](NC(=O)[C@H](Cc1ccccc1)NC(=O)[C@@H](NC(=O)[C@H](C)NC(=O)[C@H](CC(=O)O)NC(=O)[C@H](CO)NC(=O)[C@@H](N)Cc1c[nH]cn1)C(C)C)[C@@H](C)O)[C@@H](C)O)C(=O)N[C@@H](CCCCN)C(=O)N[C@@H](CC(N)=O)C(=O)N[C@@H](CCCCN)C(=O)N[C@@H](Cc1ccc(O)cc1)C(=O)O` [Peptide R3P171], for which the 50% effective concentration (EC50) at PACAP-R2 turned out to be 80 nM.
